Experimental findings from US20120135952A1, “BUTYRIC ACID SALT OF N,N-DIMETHYL IMIDOCARBON IMIDIC DIAMIDE, METHOD OF PREPARING SAME, AND PHARMACEUTICAL COMPOSITIONS AND COMBINATIONS CONTAINING SAME” (Hanall Biopharma Co., Ltd., priority 2009, published 2012) are described below.

For data set [1], the system named is Human breast cancer-derived MCF7 cells. Briefly: MTT assay, cancer cell viability and growth inhibition (MCF7). To be noted: for IC50: read-out: GROWTH INHIBITORY CONCENTRATION (GIC50), MCF7, 72 hours, MTT; for CELLULAR VIABILITY (%): 72 hours, relative to untreated cells. Background: Formazan colour is commonly taken as a measure of viable cells.
Description: (§1) Human breast cancer-derived MCF7 cells and lung cancer-derived A549 cells were used as a test system.
(§2) MCF7 cells and A549 cells cultured in a DMEM containing 10% fetal bovine serum were respectively dispensed at a cell density of about 5×10^3 cells/well on a 96-well plate, followed by culturing for about 24 hours.
(§3) The resulting formazane crystal was dissolved in dimethyl sulfoxide (DMSO), and absorbance of the solution was measured at 560 nm.
Data set [2] concerns lung cancer-derived A549 cells. Briefly: MTT assay, cancer cell viability and growth inhibition (A549). To be noted: for IC50: read-out: GROWTH INHIBITORY CONCENTRATION (GIC50), A549, 72 hours, MTT; for CELLULAR VIABILITY (%): 72 hours, relative to untreated cells.
Description: as §1, §2, §3
The test system of data set [3] is lung cancer-derived A549 cells. Conditions: human, 72 h.
Description: as §1, §2, §3
Data set [4] deals with Human breast cancer-derived MCF7 cells. Conditions: 72 h.
Description: as §1, §2, §3

The structures appear in SMILES notation. Where a name gives a salt, the structure may show the parent alone. Read-outs that look alike come from different tables or passages of the source.

Consider `CCCC(=O)O` [Butyric acid, butyric acid], for which the IC50 in data set [1] came out at 2200 µM; in data set [2], 5200 µM. The “CELLULAR VIABILITY (%)” value in data set [3] (2 mM) stood at 78.6%; in data set [3] (10 mM) it was 28.3%; in data set [4] (2 mM) it was 53.9%; in data set [4] (10 mM) it was 22.3%.

Regarding `CN(C)C(=N)NC(=N)N` [Metformin butyrate, N,N-dimethyl imidodicarbonimidic diamide butyrate], the “CELLULAR VIABILITY (%)” value in data set [1] (MCF7, 2 mM) is 45.5%; in data set [1] (MCF7, 10 mM) it was 19.9%; in data set [1] (MCF7, 10 mM, listed as metformin butyrate) it was “less than 20%”; in data set [2] (A549, 2 mM), 57.7%; in data set [2] (A549, 10 mM), 11.7%; in data set [2] (A549, 10 mM, listed as metformin butyrate), “less than 20%”. For the same compound, the values for the IC50 in data set [1] and in data set [2] were 1600 µM and 2500 µM, respectively.

For `CN(C)C(=N)N=C(N)N` [Metformin hydrochloride, metformin hydrochloride], the “CELLULAR VIABILITY (%)” value in data set [1] (MCF7, 2 mM, hydrochloride) is 86.5%; in data set [1] (MCF7, 10 mM, hydrochloride) it was 73.6%; in data set [2] (A549, 2 mM, hydrochloride) it was 63.5%; in data set [2] (A549, 10 mM, hydrochloride), 39.6%. In addition, the IC50 in data set [1] is greater than 10000 µM; in data set [2], 3600 µM.
